Common to all, as to experiment: NCI-60 cell line screen, 48 h
Test [1] deals with TK-10 renal.
Test [2] deals with UACC-257 melanoma.
Test [3] deals with UACC-62 melanoma.
Test [4] concerns ACHN renal.
Test [5] deals with MALME-3M melanoma.
Test [6] concerns RXF 393 renal.
Test [7] concerns NCI-H226 lung.
The subject of test [8] is NCI/ADR-RES ovarian.
Test [9] deals with OVCAR-4 ovarian.
Test [10] concerns UO-31 renal.
Test [11] concerns HT29 colon.

The structures appear in SMILES notation.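 Assay format: 96-well plates, 48-hour exposure. The concentration for full growth arrest is given as TGI.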 Where only a bound is given, the exact number is not on record here.

As to `c1csc(-c2ccc(-c3cccc4nsnc34)s2)c1`, the TGI in test [1], in test [2], in [3], in [4], in [5] and in test [6] was more than 100 µM each time. In addition, the TGI in test [7], in test [8], in [9] and in test [10] was more than 100 µM in each case.
As for `O=C1/C(=C/c2ccccc2)N=C2Sc3c(nc[nH]c3=O)N12`, the TGI in [1], in [2], in test [4], in test [5], in test [11] and in test [6] was more than 100 µM each time. For the same compound, the TGI in test [7], in [8], in test [9] and in test [10] was more than 100 µM each time.
Turning to `COC(=O)C1SC(SC)=NC12c1ccccc1Nc1ccccc12` (centres undefined), the TGI was more than 100 µM in [1]; 84.6 µM in [2]; 34 µM in [3]; more than 100 µM in test [4]; 65.1 µM in test [5]; more than 100 µM in test [11]. Further, the TGI in test [6], in test [7], in [8], in test [9] and in [10] was more than 100 µM each time.
In the case of `N#Cc1c(N2CCCC2)ncn(-c2ccccc2)c1=O`, the TGI in [1], in [2], in [3], in [4], in test [5] and in test [11] was more than 100 µM throughout. Also, the TGI in [6], in [7], in test [8], in test [9] and in [10] was more than 100 µM throughout.
Consider `COc1ccc(C2CC(c3c(O)ccc4ccccc34)=NN2C(C)=O)cc1OC` (centres undefined), for which the TGI was more than 100 µM in test [1]; more than 100 µM in [2]; 29.7 µM in [3]; more than 100 µM in test [4]; 92.1 µM in test [5]; more than 100 µM in test [11]. For the same compound, the TGI was 84.2 µM in test [6]; more than 100 µM in test [7]; more than 100 µM in [8]; more than 100 µM in test [9]; 83.3 µM in test [10].
As to `S=C1Nc2ccccc2SC1c1ccccc1` (centres undefined), the TGI in test [1], in [2], in test [3], in [4], in test [5] and in test [11] was more than 100 µM in each case. For the same compound, the TGI is 92.5 µM in test [6]; more than 100 µM in [7]; more than 100 µM in test [8]; more than 100 µM in test [9]; more than 100 µM in test [10].
Consider `CC[C@@H]1CC[C@@H]2[C@H](CC[C@]3(C)[C@@H](OC(C)=O)CC[C@@H]23)[C@H]1COC(C)=O`, for which the TGI in test [1] is more than 100 µM; in [2], 65.6 µM; in test [3], 88 µM; in [4], more than 100 µM; in test [5], 35.8 µM; in test [11] it was 39.5 µM. Moreover, the TGI is 45.9 µM in [6]; 52.5 µM in test [7]; 76 µM in test [8]; 75 µM in [9]; more than 100 µM in test [10].
With `CC(C)(C)N1CSC(=S)N(Cc2ccco2)C1`, the TGI in test [1] turned out to be 11.6 µM; in [2] it was 25 µM; in [3] it was 20 µM; in test [4], 13.7 µM; in test [5], 16.6 µM; in [11], 13.8 µM. The TGI in [6] worked out at 19.4 µM; in test [7], 41.4 µM; in test [8], 18.4 µM; in [9], 26.7 µM; in [10], 6.14 µM.
`CC(=O)O[C@@H]1[C@H](C(C)C)[C@@H](OC(C)=O)C/C(C)=C/CC[C@]2(C)O[C@@H]12`: the TGI in test [1], in [2], in test [3], in [4], in test [5] and in test [11] was more than 100 µM in each case. Further, the TGI in test [6], in [7], in test [8], in test [9] and in test [10] was more than 100 µM throughout.
Turning to `COc1cc2nc3n(c(=O)c2cc1OC)-c1ccc([N+](=O)[O-])cc1C3=O`, the TGI in test [1], in test [2], in test [3], in [4], in [5] and in test [11] was more than 100 µM each time. Moreover, the TGI in [6] is 79.7 µM; in test [7], more than 100 µM; in test [8], more than 100 µM; in [9], 63.9 µM; in test [10] it was 35 µM.
On to `CC(=O)NC(Cc1ccc(O)cc1)C(=O)O` (centres undefined), for which the TGI in test [1], in test [2], in test [3], in [4], in test [5] and in [11] was more than 100 µM each time. Moreover, the TGI in [6], in test [7], in test [8], in test [9] and in test [10] was more than 100 µM in each case.
Regarding `[N-]=[N+]=NC[C@H]1OCO[C@H](CN=[N+]=[N-])[C@@H](OCCOCCCl)[C@@H]1OCCOCCCl`, the TGI in test [1], in test [2], in test [3], in [5], in [11] and in [6] was more than 100 µM each time. In addition, the TGI is more than 100 µM in test [7], more than 100 µM in test [8], more than 100 µM in test [9] and 57.2 µM in [10].

For the origin of these results see PubChem BioAssay (NCI).
